Tests used:
Experiment in all cases: radiometric filter-binding kinase assay, Kinase HotSpot
Conditions in all cases: compound 0.5 µM; ATP 10 µM
[1] = biological target: EPHB3 (human) (UniProt P54753)
[2] = biological target: MAPK12 (human) (UniProt P53778)
[3] = biological target: MAP3K11 (human) (UniProt Q16584)
[4] = biological target: AXL (human) (UniProt P30530)
[5] = biological target: PRKG2 (human) (UniProt Q13237)
[6] = biological target: PRKCG (human) (UniProt P05129)
[7] = biological target: LRRK2 (human) (UniProt Q5S007)
[8] = biological target: ADRBK2 (human) (UniProt P35626)
[9] = biological target: PLK1 (human) (UniProt P53350)
Chain of PLK1 (human) (P53350 whole entry, looked up): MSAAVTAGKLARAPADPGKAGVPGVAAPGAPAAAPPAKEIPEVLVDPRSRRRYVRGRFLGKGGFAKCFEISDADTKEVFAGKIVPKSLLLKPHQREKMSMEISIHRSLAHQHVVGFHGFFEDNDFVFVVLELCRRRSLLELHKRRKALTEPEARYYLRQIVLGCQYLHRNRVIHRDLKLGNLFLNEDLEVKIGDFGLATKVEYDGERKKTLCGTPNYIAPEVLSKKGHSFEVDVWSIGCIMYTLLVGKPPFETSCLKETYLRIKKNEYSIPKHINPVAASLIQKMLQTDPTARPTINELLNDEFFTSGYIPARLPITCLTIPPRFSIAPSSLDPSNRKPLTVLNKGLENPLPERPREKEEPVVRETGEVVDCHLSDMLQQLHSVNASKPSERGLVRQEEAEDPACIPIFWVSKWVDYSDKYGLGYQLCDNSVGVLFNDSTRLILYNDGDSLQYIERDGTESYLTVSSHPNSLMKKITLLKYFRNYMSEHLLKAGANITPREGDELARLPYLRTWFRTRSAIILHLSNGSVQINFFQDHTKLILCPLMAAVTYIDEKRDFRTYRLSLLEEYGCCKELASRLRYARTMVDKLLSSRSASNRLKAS

[10] = biological target: CDK6 CCND1 (human) (UniProt Q00534+P24385)
[11] = biological target: SRMS (human) (UniProt Q9H3Y6)
[12] = biological target: TAOK1 (human) (UniProt Q7L7X3)
[13] = biological target: NEK9 (human) (UniProt Q8TD19)
Chain of NEK9 (human) (Q8TD19 whole entry, looked up): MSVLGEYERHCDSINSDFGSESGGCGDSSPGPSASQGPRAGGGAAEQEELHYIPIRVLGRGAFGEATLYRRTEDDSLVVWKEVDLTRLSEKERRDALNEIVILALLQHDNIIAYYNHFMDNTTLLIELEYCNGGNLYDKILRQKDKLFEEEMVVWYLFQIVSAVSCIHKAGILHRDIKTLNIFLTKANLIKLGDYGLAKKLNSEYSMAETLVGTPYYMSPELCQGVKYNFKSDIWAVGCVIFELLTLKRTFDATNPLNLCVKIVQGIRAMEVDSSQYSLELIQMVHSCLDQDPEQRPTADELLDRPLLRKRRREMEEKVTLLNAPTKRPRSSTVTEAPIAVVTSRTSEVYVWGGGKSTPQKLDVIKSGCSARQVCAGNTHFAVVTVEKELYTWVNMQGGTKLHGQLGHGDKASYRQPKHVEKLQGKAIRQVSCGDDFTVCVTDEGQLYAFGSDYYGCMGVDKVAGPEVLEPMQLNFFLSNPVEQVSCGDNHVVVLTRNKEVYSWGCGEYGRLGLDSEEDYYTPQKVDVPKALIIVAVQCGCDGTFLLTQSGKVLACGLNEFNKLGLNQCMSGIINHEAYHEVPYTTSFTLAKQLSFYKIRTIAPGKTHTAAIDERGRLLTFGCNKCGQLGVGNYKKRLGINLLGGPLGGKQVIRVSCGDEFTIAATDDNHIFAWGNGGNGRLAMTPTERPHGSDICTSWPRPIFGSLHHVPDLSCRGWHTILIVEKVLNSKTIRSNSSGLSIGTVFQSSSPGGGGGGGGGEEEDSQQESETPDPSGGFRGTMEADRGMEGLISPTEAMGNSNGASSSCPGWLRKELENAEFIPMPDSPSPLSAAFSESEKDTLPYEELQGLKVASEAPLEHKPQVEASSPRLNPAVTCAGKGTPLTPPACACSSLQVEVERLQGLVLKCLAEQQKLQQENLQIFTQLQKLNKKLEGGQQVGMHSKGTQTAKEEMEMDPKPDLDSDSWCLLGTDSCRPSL

[14] = biological target: NTRK1 (human) (UniProt P04629)
[15] = biological target: PAK2 (human) (UniProt Q13177)
[16] = biological target: FGFR4 (human) (UniProt P22455)
[17] = biological target: MAP3K10 (human) (UniProt Q02779)
Chain of MAP3K10 (human) (Q02779 whole entry, looked up): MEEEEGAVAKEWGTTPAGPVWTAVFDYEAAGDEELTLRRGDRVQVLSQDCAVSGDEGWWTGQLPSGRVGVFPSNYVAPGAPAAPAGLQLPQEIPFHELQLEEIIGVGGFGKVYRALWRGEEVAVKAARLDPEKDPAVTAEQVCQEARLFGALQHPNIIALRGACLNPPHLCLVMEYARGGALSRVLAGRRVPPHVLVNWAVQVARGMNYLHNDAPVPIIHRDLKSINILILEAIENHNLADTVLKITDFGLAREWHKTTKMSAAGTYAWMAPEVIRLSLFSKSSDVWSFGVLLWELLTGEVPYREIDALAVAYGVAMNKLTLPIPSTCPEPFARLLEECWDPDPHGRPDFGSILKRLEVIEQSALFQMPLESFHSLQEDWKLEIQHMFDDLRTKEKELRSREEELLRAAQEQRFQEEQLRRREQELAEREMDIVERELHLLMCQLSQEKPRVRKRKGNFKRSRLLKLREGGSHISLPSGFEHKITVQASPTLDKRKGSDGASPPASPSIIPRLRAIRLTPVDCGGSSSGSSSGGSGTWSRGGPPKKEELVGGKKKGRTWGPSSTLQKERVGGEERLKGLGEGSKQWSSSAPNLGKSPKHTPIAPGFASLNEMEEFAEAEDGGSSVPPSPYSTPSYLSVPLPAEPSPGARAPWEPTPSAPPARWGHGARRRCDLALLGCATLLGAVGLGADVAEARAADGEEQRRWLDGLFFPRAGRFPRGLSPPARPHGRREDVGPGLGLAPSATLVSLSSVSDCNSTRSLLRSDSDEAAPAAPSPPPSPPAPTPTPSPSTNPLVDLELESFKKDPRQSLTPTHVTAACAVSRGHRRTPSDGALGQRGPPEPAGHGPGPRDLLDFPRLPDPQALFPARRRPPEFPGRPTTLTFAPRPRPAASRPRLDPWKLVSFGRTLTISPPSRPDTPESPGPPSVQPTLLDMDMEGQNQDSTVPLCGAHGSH

[18] = biological target: RPS6KA3 KD1 KD2 (human) (UniProt P51812)
[19] = biological target: ROCK2 (human) (UniProt O75116)
[20] = biological target: PAK3 (human) (UniProt O75914)
[21] = biological target: STK17A (human) (UniProt Q9UEE5)
Chain of STK17A (human) (Q9UEE5 whole entry, looked up): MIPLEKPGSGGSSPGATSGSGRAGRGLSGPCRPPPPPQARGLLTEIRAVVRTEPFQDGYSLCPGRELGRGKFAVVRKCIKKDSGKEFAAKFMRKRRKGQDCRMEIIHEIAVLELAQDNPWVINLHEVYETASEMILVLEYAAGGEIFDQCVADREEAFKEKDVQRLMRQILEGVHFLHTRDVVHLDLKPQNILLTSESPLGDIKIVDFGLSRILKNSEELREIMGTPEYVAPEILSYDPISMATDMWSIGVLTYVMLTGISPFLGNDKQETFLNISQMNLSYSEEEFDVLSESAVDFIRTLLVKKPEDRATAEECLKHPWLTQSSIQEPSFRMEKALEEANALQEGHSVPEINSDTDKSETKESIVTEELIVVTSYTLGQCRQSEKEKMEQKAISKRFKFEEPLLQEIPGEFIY

[22] = biological target: NEK1 (human) (UniProt Q96PY6)
[23] = biological target: WEE1 (human) (UniProt P30291)
[24] = biological target: CSNK1A1 (human) (UniProt P48729)
[25] = biological target: STK25 (human) (UniProt O00506)
Chain of STK25 (human) (O00506 whole entry, looked up): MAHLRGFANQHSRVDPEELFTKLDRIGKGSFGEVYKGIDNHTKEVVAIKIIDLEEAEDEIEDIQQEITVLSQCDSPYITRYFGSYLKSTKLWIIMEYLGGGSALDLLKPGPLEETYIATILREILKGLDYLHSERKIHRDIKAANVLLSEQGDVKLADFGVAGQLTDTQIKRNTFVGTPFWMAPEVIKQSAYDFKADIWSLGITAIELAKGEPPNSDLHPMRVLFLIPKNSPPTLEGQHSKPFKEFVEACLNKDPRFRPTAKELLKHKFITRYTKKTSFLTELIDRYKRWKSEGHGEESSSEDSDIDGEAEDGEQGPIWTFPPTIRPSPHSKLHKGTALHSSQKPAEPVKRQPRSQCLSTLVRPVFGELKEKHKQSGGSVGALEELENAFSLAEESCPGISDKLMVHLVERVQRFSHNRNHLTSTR

[26] = biological target: CLK4 (human) (UniProt Q9HAZ1)
[27] = biological target: PDPK1 (human) (UniProt O15530)
[28] = biological target: CDK9 CCNT1 (human) (UniProt P50750+O60563)
[29] = biological target: RPS6KA1 KD1 KD2 (human) (UniProt Q15418)
[30] = biological target: SIK2 (human) (UniProt Q9H0K1)
[31] = biological target: LTK (human) (UniProt P29376)
[32] = biological target: NEK7 (human) (UniProt Q8TDX7)
[33] = biological target: ZAP70 (human) (UniProt P43403)
[34] = biological target: MAPKAPK5 (human) (UniProt Q8IW41)
[35] = biological target: MST1R (human) (UniProt Q04912)
[36] = biological target: STK24 (human) (UniProt Q9Y6E0)
[37] = biological target: PLK2 (human) (UniProt Q9NYY3)
Chain of PLK2 (human) (Q9NYY3 whole entry, looked up): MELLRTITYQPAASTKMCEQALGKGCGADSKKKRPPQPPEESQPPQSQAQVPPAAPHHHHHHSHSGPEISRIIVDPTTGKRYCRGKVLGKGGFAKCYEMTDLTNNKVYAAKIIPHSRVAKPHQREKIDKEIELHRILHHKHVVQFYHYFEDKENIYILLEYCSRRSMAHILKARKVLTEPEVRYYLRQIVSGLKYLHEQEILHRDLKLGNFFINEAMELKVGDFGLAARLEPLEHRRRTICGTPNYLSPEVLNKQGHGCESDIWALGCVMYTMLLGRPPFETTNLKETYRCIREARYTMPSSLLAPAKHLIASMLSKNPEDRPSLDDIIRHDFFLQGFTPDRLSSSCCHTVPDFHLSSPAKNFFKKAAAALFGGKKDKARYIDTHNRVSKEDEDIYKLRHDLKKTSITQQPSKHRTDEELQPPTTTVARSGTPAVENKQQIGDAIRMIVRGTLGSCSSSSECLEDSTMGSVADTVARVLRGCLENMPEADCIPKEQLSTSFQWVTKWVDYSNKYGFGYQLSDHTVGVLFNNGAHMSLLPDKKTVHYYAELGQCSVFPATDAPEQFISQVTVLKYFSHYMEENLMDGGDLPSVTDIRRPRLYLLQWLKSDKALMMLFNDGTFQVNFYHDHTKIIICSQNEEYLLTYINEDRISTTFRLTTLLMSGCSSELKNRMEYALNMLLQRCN

[38] = biological target: PAK4 (human) (UniProt O96013)
[39] = biological target: CAMK1 (human) (UniProt Q14012)
[40] = biological target: RET (human) (UniProt P07949)
[41] = biological target: GRK6 (human) (UniProt P43250)
[42] = biological target: MARK2 (human) (UniProt Q7KZI7)

Chain of EPHB3 (human) (P54753 whole entry, looked up): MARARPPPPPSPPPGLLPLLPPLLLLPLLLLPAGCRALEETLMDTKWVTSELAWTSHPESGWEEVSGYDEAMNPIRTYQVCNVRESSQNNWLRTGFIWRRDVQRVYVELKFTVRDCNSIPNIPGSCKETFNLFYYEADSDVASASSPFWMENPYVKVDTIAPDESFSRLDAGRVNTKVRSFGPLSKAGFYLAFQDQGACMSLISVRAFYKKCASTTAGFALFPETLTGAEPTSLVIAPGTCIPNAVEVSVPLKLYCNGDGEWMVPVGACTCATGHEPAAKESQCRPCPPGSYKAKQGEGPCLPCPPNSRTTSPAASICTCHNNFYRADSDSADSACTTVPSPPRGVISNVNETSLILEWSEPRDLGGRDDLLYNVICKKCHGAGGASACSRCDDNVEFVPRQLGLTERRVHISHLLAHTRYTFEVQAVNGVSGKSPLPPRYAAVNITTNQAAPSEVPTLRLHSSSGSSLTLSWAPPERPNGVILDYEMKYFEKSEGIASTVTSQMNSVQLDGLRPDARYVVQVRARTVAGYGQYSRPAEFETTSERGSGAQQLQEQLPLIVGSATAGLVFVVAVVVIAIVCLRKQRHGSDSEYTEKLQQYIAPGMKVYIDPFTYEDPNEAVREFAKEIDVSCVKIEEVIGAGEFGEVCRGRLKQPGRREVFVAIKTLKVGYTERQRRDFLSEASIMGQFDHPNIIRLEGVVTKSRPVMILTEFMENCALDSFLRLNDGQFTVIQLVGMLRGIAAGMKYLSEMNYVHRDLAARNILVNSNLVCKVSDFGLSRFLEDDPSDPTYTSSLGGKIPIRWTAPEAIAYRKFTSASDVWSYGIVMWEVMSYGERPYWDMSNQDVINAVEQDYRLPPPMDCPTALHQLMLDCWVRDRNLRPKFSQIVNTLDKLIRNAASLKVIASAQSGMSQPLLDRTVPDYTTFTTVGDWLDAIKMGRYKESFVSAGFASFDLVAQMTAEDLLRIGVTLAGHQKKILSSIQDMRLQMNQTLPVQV

Structure (SMILES): O=C1NC(=O)c2cc(Nc3ccc(F)cc3)c(Nc3ccc(F)cc3)cc21
- residual activity [1]: 94.7%
- residual activity [2]: 93.6%
- residual activity [3]: 98.4%
- residual activity [4]: 104%
- residual activity [5]: 83.3%
- residual activity [6]: 102%
- residual activity [7]: 99.8%
- residual activity [8]: 104%
- residual activity [9]: 99.9%
- residual activity [10]: 99%
- residual activity [11]: 95.5%
- residual activity [12]: 90.3%
- residual activity [13]: 107%
- residual activity [14]: 93.6%
- residual activity [15]: 98.5%
- residual activity [16]: 95.5%
- residual activity [17]: 90.6%
- residual activity [18]: 118%
- residual activity [19]: 92.8%
- residual activity [20]: 99.4%
- residual activity [21]: 104%
- residual activity [22]: 88%
- residual activity [23]: 99.6%
- residual activity [24]: 88%
- residual activity [25]: 101%
- residual activity [26]: 88.6%
- residual activity [27]: 102%
- residual activity [28]: 95.4%
- residual activity [29]: 97.7%
- residual activity [30]: 103%
- residual activity [31]: 99.7%
- residual activity [32]: 103%
- residual activity [33]: 78.8%
- residual activity [34]: 93.4%
- residual activity [35]: 100%
- residual activity [36]: 93.7%
- residual activity [37]: 99.6%
- residual activity [38]: 95.1%
- residual activity [39]: 104%
- residual activity [40]: 104%
- residual activity [41]: 98.7%
- residual activity [42]: 98.2%

Structure (SMILES): O=c1c(-c2ccc(F)cc2)c(-c2ccncc2)[nH]n1-c1ccc(Cl)cc1
- residual activity [1]: 92.2%
- residual activity [2]: 85.2%
- residual activity [3]: 98%
- residual activity [4]: 113%
- residual activity [5]: 110%
- residual activity [6]: 101%
- residual activity [7]: 102%
- residual activity [8]: 95%
- residual activity [9]: 98.3%
- residual activity [10]: 92.3%
- residual activity [11]: 104%
- residual activity [12]: 102%
- residual activity [13]: 107%
- residual activity [14]: 95.5%
- residual activity [15]: 102%
- residual activity [16]: 92.4%
- residual activity [17]: 88.1%
- residual activity [18]: 94.3%
- residual activity [19]: 89.5%
- residual activity [20]: 98.3%
- residual activity [21]: 105%
- residual activity [22]: 78.7%
- residual activity [23]: 81.6%
- residual activity [24]: 63.7%
- residual activity [25]: 111%
- residual activity [26]: 78.9%
- residual activity [27]: 104%
- residual activity [28]: 101%
- residual activity [29]: 103%
- residual activity [30]: 101%
- residual activity [31]: 75.5%
- residual activity [32]: 90.1%
- residual activity [33]: 108%
- residual activity [34]: 99.7%
- residual activity [35]: 95%
- residual activity [36]: 111%
- residual activity [37]: 92.5%
- residual activity [38]: 82%
- residual activity [39]: 94.4%
- residual activity [40]: 99.6%
- residual activity [41]: 90.1%
- residual activity [42]: 88.8%

Structure (SMILES): Cn1cc(/C=C2\C(=O)Nc3ccc(S(N)(=O)=O)cc32)c2ccccc21
- residual activity [1]: 93.2%
- residual activity [2]: 101%
- residual activity [3]: 9.89%
- residual activity [4]: 49.2%
- residual activity [5]: 85%
- residual activity [6]: 106%
- residual activity [7]: 9.76%
- residual activity [8]: 111%
- residual activity [9]: 92.1%
- residual activity [10]: 82.4%
- residual activity [11]: 99.8%
- residual activity [12]: 98.3%
- residual activity [13]: 67.3%
- residual activity [14]: 6.15%
- residual activity [15]: 79.2%
- residual activity [16]: 74.1%
- residual activity [17]: 95.9%
- residual activity [18]: 12.4%
- residual activity [19]: 41%
- residual activity [20]: 93.8%
- residual activity [21]: 57.5%
- residual activity [22]: 68.5%
- residual activity [23]: 82.3%
- residual activity [24]: 105%
- residual activity [25]: 83.5%
- residual activity [26]: 42.6%
- residual activity [27]: 95%
- residual activity [28]: 65%
- residual activity [29]: 12.7%
- residual activity [30]: 81.4%
- residual activity [31]: 54.5%
- residual activity [32]: 101%
- residual activity [33]: 102%
- residual activity [34]: 88.3%
- residual activity [35]: 100%
- residual activity [36]: 80.2%
- residual activity [37]: 104%
- residual activity [38]: 86.2%
- residual activity [39]: 75.7%
- residual activity [40]: 1.93%
- residual activity [41]: 47.2%
- residual activity [42]: 45.5%

From the kinase profiling compilation of Christmann-Franck et al. (2016)
